Assay results from publication PMC8294803, “A Roadmap to the Structure-Related Metabolism Pathways of Per- and Polyfluoroalkyl Substances in the Early Life Stages of Zebrafish (Danio rerio)” (Environmental Health Perspectives, 2021).
Values joined by “and” are separate entries in the source; they are usually repeats but may differ in a detail not shown here. Identical values can stand only once. “Also recorded” adds a separate entry of the source.

What was measured:
[1] = system: zebrafish embryos; conditions: for pericardial oedemata, Mean / spinal curvature, Mean / tail dysplasia, Mean: 5μM through 120 hpf, malformation rate; for Mortality (%): 5 µM, exposure through 120 hpf
[2] = biological target: T1, recombinant human liver carboxylesterase 1 (hCES1) (Homo sapiens, UniProt P23141); test: Hydrolysis of PFAS by recombinant hCES1; type: in vitro ADME; conditions: for concentration of corresponding hydrolysis product detected from parent PFAS, hCES1 / concentration of corresponding hydrolysis product detected from parent PFAS, Control: 10 µM parent PFAS, three replicates; for concentration of corresponding hydrolysis product detected from parent PFAS, hCES1: incubated with hCES1; for concentration of corresponding hydrolysis product detected from parent PFAS, Control: vehicle control group without hCES1; for Concentration of hydrolysis product: from 10μM of parent, 100μg/L hCES1, 37°C; for percentage of polyfluoroalkyl carboxamide 19, hCES1: 100 μg/L hCES1; for percentage of polyfluoroalkyl carboxamide 19, hCES1 / percentage of polyfluoroalkyl carboxamide 19, Control: 37 °C, 1 hour, N=3; for percentage of polyfluoroalkyl carboxamide 19, Control: vehicle control without hCES1; for Parent PFAS, hCES1 (%) / Parent PFAS, Control (%): 10 μM PFAS, single replicates; for Parent PFAS, hCES1 (%): 100 μg/L hCES1, phosphate buffer 37 °C 1 hour, axis %Control; for Parent PFAS, Control (%): without hCES1, phosphate buffer 37 °C 1 hour
T1 construct: purchased Sigma Aldrich
T1 sequence (P23141 18-567): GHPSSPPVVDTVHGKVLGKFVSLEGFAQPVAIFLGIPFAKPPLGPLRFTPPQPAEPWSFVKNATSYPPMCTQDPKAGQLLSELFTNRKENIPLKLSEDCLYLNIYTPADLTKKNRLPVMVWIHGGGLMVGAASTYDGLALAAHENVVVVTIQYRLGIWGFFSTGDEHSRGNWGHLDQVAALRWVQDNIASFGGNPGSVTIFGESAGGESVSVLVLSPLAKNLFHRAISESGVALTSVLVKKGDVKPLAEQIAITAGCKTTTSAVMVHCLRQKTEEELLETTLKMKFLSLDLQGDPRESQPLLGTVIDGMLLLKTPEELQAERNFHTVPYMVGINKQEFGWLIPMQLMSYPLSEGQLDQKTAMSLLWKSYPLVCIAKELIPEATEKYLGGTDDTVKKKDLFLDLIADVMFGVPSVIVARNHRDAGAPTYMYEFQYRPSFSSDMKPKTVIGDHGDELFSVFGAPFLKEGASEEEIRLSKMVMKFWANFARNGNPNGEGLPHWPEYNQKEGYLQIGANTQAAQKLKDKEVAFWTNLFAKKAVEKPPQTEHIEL
Protocol: Because recombinant zebrafish CES is not available, we decided to use hCES1 to evaluate the structure-related hydrolysis of PFAS. […] In vitro enzymatic activity experiments were carried out for 1 h in 1.5-mL tubes with 100μL phosphate buffer ( 137 mM sodium chloride, 10 mM phosphate buffer, 2.7 mM potassium chloride; pH 7.4) at 37°C with shaking. Reaction mixtures contained different concentrations of PFAS (1, 10, and 50μM ) and 100μg/L hCES1. […] To stop the hydrolysis reaction, four times the volume of ice-cold methanol was added. The hCES1 protein was precipitated out by centrifugation ( 14,000×g , 10 min). The supernatant was transferred to a new tube and analyzed via MS for the analysis of parent compounds and suspected metabolites (i.e., carboxylates).

[3] = system: zebrafish larvae; test: Nontargeted analysis of PFAS metabolites in zebrafish larvae (high-resolution MS); conditions: for Metabolites / hydrolysis products in zebrafish larvae: in vivo, nontargeted analysis
Protocol: (§1) Zebrafish embryos were collected immediately after spawning, within 1 h, and subsequently transferred to 24-well plates with 1mL of facility water ( 0.036g sea salt, 0.15g sodium bicarbonate in 2L of reverse osmosis water). […] Three well replicates on the same plate were conducted for each concentration of individual chemical. […] Seven batches of experiments were performed to test all 74 PFAS. DMSO controls were incorporated in each batch of exposure experiments. Three replicates were performed for each treatment group, and 20 embryos were used for each replicate. […] For daily replenishment, 2.5mL of old exposure medium were replaced with freshly prepared medium every 24 h from 24 to 96 h post fertilization (hpf). Hatched or dead embryo numbers were recorded every 24 hpf, after which dead embryos were discarded from the growth media. Dead embryos or unhatched embryos were not used for PFAS measurement because the metabolism of PFAS might have been impacted. Zebrafish larvae collection occurred at 120 hpf. First, the larvae were anesthetized by cooling the plate in ice water (0–4°C) for ∼20 min . Then 8–15 larvae in each well were transferred into 1.5-mL tubes. Exposure media was carefully removed, and then the larvae were weighed (wet weight) after blotting excess water with a paper towel. […] Samples were stored at −80 °C until further chemical analysis was performed. Survival rate and hatching rate were calculated by summarizing all the documented data from the whole treatment duration. […] The exposure experiment of PFOSA was repeated using the same procedure as described above.
(§2) Each sample was spiked with 2μL of 0.2μg/mL mass-labeled PFAS mixture. Following this, 500μL of dichloromethane/methanol (2:1, vol/vol) was added to each sample for PFAS extraction. Larvae were then homogenized via ultrasonic probe, followed by 30 min of shaking and 30 min of sonication. Each sample was centrifuged at 14,000×g for 5 min, after which the supernatant was transferred to new tubes. Extraction was repeated once and the two supernatants were combined, evaporated under nitrogen flow, and reconstituted in 200μL of methanol for MS analysis.
(§3) Three microliters of each zebrafish extract was applied to a C18 column ( 1.5μm; 2.1mm×50mm; Thermo Scientific) and analyzed using a Vanquish ultra-HPLC system (Thermo Fisher Scientific) coupled to a Q Exactive high-resolution mass spectrometer (Thermo Fisher Scientific). The sampler and column compartments were maintained at 4°C and 40°C, respectively. The aqueous mobile phase solution (A) consisted of water, whereas the organic mobile phase solution (B) consisted of acetonitrile. […] MS data was acquired in full scan mode (100–1000 m/z, 70,000 mass resolution, 3×10^6 maximum ions collected per 100 ms), and tandem MS (MS/MS) data was recorded by all-ion fragmentation (AIF) mode. Negative and positive ion modes were carried out simultaneously at a 10-min method duration. […] An overview of the analyses conducted on the various PFAS is available in Table S2.
Nontargeted data analysis was accomplished with R scripts that are available on Github (https://github.com/huiUofT/PFASmetabolite). […] The peak features were matched across samples with a mass tolerance of 2.5 ppm and a RT window of 20 s, after RT adjustment. The ratio of abundances of each feature in treatment groups relative to the control group (DMSO) was calculated. The p -values of the difference between two groups were determined by student’s t -tests.

[4] = biological target: liver fatty acid binding protein (L-FABP); parameters: method as in Yang et al. 2020; conditions: ref Yang et al. 2020; read-out: Kd (μM), L-FABP binding affinity; cited from earlier work
[5] = system: zebrafish larvae; test: Bioconcentration factors (BCF) of PFAS in zebrafish larvae; conditions: for BCF 0.5µM: 0.5 µM exposure; for BCF 0.5µM / BCF 5µM: 120 hpf, three replicates; for BCF 5µM: 5 µM exposure; for BCF: exposure concentration not given
Protocol: as §1, §2, §3
GraphPad Prism (version 7.0.4; GraphPad Software) and R studio (version 1.1.456; R Studio Inc.) software was used, and an ANOVA with Dunnett tests was employed to evaluate the statistical significance of the percentage hatched and mortality rate. Exponential regressions were used to determine the relationships between bioconcentration factor (BCF) and binding affinities ( Kd ) to L-FABP.

| Compound | pericardial oedemata, Mean [1] [%] | spinal curvature, Mean [1] [%] | tail dysplasia, Mean [1] [%] | Mortality (%) [1] [%] | Concentration of hydrolysis product [2] | Metabolites / hydrolysis products in zebrafish larvae [3] | Parent PFAS, hCES1 (%) [2] | Parent PFAS, Control (%) [2] | BCF ([5]; zebrafish larvae) [L/kg] | other results |
| --- | --- | --- | --- | --- | --- | --- | --- | --- | --- | --- |
| 2,2-Difluoroethyl triflate [compound 13] | 2.22 | 0.00 | 1.11 | 2.2 | not detected | metabolites were not detected |  |  |  | concentration of corresponding hydrolysis product detected from parent PFAS, hCES1 [2]: 0 nM; concentration of corresponding hydrolysis product detected from parent PFAS, Control [2]: 0 nM |
| 2-(Trifluoromethoxy)ethyl trifluoromethanesulfonate [compound 10] | 2.22 | 1.11 | 0.00 | 0 | not detected | metabolites were not detected |  |  |  | concentration of corresponding hydrolysis product detected from parent PFAS, hCES1 [2]: 0 nM; concentration of corresponding hydrolysis product detected from parent PFAS, Control [2]: 0 nM |
| O=C(O)C(F)(F)C(F)(F)C(F)F [compound 4, 4H-Perfluorobutanoic acid] | 1.11 | 2.22 | 0.00 | 0 |  |  |  |  |  | Kd [4]: 352 µM; Concentration in zebrafish larvae directly exposed ([5]; 5μM of the PFCA itself): 7.0 ± 1.3 µM; BCF 0.5µM ([5]; zebrafish larvae): 3.397 L/kg; BCF 5µM ([5]; zebrafish larvae): 1.9 ± 0.4 L/kg; Peak intensity of PFCA in zebrafish embryos directly exposed to the PFCA ([3]; 5μM through 120 hpf, single replicates, listed as 1H-PFBA): 18758096 and 21668103 and 32644288 |
| NC(=O)C(F)(F)C(F)(F)C(F)(F)C(F)(F)F [compound 19, Nonafluoropentanamide] | 0.00 | 0.00 | 0.00 | 1.1 |  | high abundances of metabolized carboxylates were detected | 0.00% | 100.46% and 90.28% and 109.26% | < 10 | percentage of polyfluoroalkyl carboxamide 19, hCES1 ([2]; 1 μM 19): 0.00%; percentage of polyfluoroalkyl carboxamide 19, Control ([2]; 1 μM 19): 114.95% and 85.05%; percentage of polyfluoroalkyl carboxamide 19, hCES1 ([2]; 10 μM 19): 0.00%; percentage of polyfluoroalkyl carboxamide 19, Control ([2]; 10 μM 19): 100.46% and 90.28% and 109.26%; Parent hydrolyzed by hCES1 ([2]; 10μM PFAS, 100μg/L hCES1): completely metabolized; percentage of polyfluoroalkyl carboxamide 19, hCES1 ([2]; 50 μM 19): 62.27% and 65.75% and 66.90%; percentage of polyfluoroalkyl carboxamide 19, Control ([2]; 50 μM 19): 96.65% and 95.06% and 108.30% |
| NC(=O)C(F)(F)C(F)(F)C(F)(F)F [compound 31, Heptafluorobutyramide] | 0.00 | 0.00 | 0.00 | 2.2 |  | high abundances of metabolized carboxylates were detected | 88.80% and 125.28% and 71.56% | 98.24% and 100.70% and 101.05% | < 10 |  |
| OCC(F)(F)OC(F)(F)C(F)(F)OC(F)(F)CO [compound 32, 1H,1H,8H,8H-Perfluoro-3,6-dioxaoctane-1,8-diol] | 1.11 | 0.00 | 1.11 | 3.3 |  |  |  |  |  | BCF at 0.5μM compared with 5μM ([5]; zebrafish larvae): comparable or even higher BCFs at 5μM; BCF 0.5µM ([5]; zebrafish larvae): 5.939 L/kg; BCF 5µM ([5]; zebrafish larvae): 8.4 ± 1.1 L/kg; Profile of metabolites (%): Alcohol ([3]; zebrafish larvae, Figure 5B): 48.26%; Peak intensity: Alcohol (parent FTOH) ([3]; zebrafish larvae, single replicates, Figure 5A): 13344387 and 7489514 and 11717785 |
| COC(=O)C(F)(F)C(F)(F)C(F)(F)C(F)(F)C(F)(F)F [compound 36, Methyl perfluorohexanoate] | 1.11 | 0.00 | 0.00 | 4.4 | not detected | metabolites were not detected |  |  |  |  |
| COC(=O)C(F)(F)C(F)(F)C(F)(F)F [compound 47, Methyl heptafluorobutyrate] | 2.22 | 1.11 | 0.00 | 0 | not detected | metabolites were not detected |  |  |  |  |
| NC(=O)C(F)(F)C(F)(F)C(F)(F)C(F)(F)C(N)=O [compound 58, Octafluoroadipamide] | 1.11 | 1.11 | 0.00 | 6.7 | not detected | metabolites were not detected; also recorded: no metabolite was detected | 97.41% and 90.44% and 135.26% | 83.59% and 76.79% and 139.62% | < 10 |  |
